Structures are written as SMILES. Calls of active or inactive are those of the source. No cut-off for these calls is given here.

One may read the IC50 as the concentration that gives 50% inhibition. Higher therefore signals weaker potency in that assay. What is called EC50 is the midpoint of the concentration-response curve. The low end stands for higher potency in that assay, the high end for lower potency in that assay.

The target of assay [1] is T1, Glucocorticoid receptor (Homo sapiens, UniProt P04150).
T1 sequence (P04150 whole entry): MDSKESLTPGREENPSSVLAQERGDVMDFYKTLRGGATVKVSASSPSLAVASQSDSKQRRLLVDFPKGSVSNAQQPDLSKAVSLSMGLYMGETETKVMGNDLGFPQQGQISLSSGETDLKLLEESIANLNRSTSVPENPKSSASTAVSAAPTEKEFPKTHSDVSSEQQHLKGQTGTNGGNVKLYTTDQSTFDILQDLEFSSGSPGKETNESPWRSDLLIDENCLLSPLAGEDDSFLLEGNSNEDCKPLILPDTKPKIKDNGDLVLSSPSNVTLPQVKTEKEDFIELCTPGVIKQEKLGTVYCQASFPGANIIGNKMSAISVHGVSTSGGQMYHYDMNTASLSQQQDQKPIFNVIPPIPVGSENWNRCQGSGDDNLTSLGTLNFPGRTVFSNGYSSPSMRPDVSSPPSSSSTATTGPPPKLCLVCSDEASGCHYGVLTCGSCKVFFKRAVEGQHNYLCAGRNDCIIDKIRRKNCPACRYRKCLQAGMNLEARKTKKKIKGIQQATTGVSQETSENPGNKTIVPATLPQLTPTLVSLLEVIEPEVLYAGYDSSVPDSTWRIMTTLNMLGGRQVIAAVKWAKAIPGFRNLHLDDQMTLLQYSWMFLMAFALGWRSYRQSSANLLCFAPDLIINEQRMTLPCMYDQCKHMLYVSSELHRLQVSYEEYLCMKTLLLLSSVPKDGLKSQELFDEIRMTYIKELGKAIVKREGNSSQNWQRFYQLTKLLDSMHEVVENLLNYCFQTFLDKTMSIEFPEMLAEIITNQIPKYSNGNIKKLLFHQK
Description: Agonist activity at GR assessed as NF-kappaB-mediated transrepression of secreted placental alkaline phosphatase gene in human A549 cells

The target of assay [2] is T1, Glucocorticoid receptor. This is another data set of the same source.
Assay [3] concerns Mus musculus. Put plainly: Anti-inflammatory activity against oxazolone-induced ear skin delayed types hypersensitivity model in topically dosed BALB/c mouse. Format: functional.
Assay [4] addresses Estrogen receptor (Homo sapiens) (UniProt Q92731+P03372). Nature of the assay: Activity at ER. Format: protein assay.
The target in assay [5] is T1, Glucocorticoid receptor. The source holds these as a separate data set.
The species entered for assay [6] is Homo sapiens. Put plainly: Selectivity for GR over PR by binding assay.
Assay [7] concerns the target T1, Glucocorticoid receptor. This is another data set of the same source.
Assay [8] is filed under the species Homo sapiens. Nature of the assay: Selectivity for GR over AR by binding assay.
Assay [9] is filed under the species Homo sapiens. Put plainly: Selectivity for GR over AR by functional assay.
Assay [10] is filed under the species Homo sapiens. Put plainly: Selectivity for GR in NF-kappaB transrepression assay over MR antagonism. Format: functional.
Assay [11] is filed under the species Homo sapiens. Nature of the assay: Selectivity for GR over PR by functional assay.
Assay [12] has as its target T2, Glucocorticoid receptor (Homo sapiens) (UniProt P04150).
T2 sequence (whole entry): T1 sequence (P04150 whole entry)
Nature of the assay: Selectivity for MMTV transactivation assay over NF-kappaB transrepression assay for GR agonism in A549 cells. Format: functional, cell-based.

Turning to `CCC(CC)C1(CC(O)(C(=O)Nc2ccc3c(=O)onc(C)c3c2)C(F)(F)F)CCCc2ccccc21` (stereo unspecified), the concentration for half-maximal inhibition (IC50) is 1.2 nM in [1], 66.1 nM in assay [2] and 5.25 nM in assay [5]. The ED50 in assay [3] was determined as 0.35 µg. For the same molecule, the outcome in assay [4] was inactive. The Selectivity ratio in assay [6] was 10; in [8], over 50; in [9] it was over 50; in assay [10], over 100; in assay [11], 10. In addition, the 50% effective concentration (EC50) in assay [7] is 6.31 nM. Moreover, the Efficacy in assay [12] amounted to 50%.

As for `Cc1noc(=O)c2ccc(NC(=O)[C@](O)(C[C@@]3(C4CCCC4)CCCc4ccccc43)C(F)(F)F)cc12`, the 50% inhibitory concentration (IC50) in assay [1] was 2.04 nM; in assay [2], 53.7 nM; in assay [5] it was 8.13 nM. The ED50 in [3] is 0.05 µg. The outcome in assay [4] was inactive. In addition, in assay [7], the midpoint of the response, the EC50, lay at 17.8 nM. Further, the values for the Selectivity ratio in [8], in [9] and in [10] were over 50, over 50 and over 100, respectively.

The record behind these values is ChEMBL document CHEMBL1138886, “Dissociated nonsteroidal glucocorticoid receptor modulators; discovery of the agonist trigger in a tetrahydronaphthalene-benzoxazine series” (J Med Chem, 2006).
